The values below come from EP0010209A1, “N-Benzoyl-retinyl amines, process for their preparation, pharmaceutical compositions comprising them and the use of these compounds for the therapy and prophylaxis of precanceroses and carcinomas of the skin” (BASF Aktiengesellschaft, priority 1978, dated 1980).

One data set concerns tracheal cartilage. Conditions: toxicity to tracheal cartilage in vitro; from Nature 263, 110-113 (1976); read-out: celluläre Toxizitätsschwelle (Konzentration); cited from earlier work.
In data set [1] the test system is durch Vitamin A-Hypovitaminose keratinisierten Hamstertrachealgewebe. Conditions: hamster tracheal tissue keratinised by vitamin A deficiency; active only at this concentration; cited from earlier work.
The subject of a further data set is Brustkrebs bei Ratten. Nature of the data set: Prevention of nitrosomethylurea-induced mammary cancer in rats. It is filed as in vivo, Sprague-Dawley Ratten. Conditions: nitrosomethylurea 50 mg/kg i.v., 2 mmol/kg diet from day 3, 12 weeks.

The structures appear in SMILES notation. Some results are limits rather than exact numbers.

Consider `CC(=O)NCC=C(C)C=CC=C(C)C=CC1=C(C)CCCC1(C)C` [N-Acetyl-retinylamin], for which, in the data set on tracheal cartilage, the MCC is above 10 µM. Also, the “Konzentration, in der Aktivität vorliegt” value in data set [1] was 9.10^-9 molar.

For `CC1=C(/C=C/C(C)=C/C=C/C(C)=C/CNC(=O)c2ccccc2)C(C)(C)CCC1` [Benzoyl-retinylamin, N-Benzoyl-all-E-Retinylamin], the “Zahl der Tumoren” value in the data set on Brustkrebs bei Ratten (all tumours) is 10. For the same molecule, the “Zahl der Tumoren davon größer als 1,0 g” value with Brustkrebs bei Ratten (tumours > 1,0 g) is on record as 2. Further, the “Zahl der Tumoren größer als 0,100 g” value in the data set on Brustkrebs bei Ratten (tumours > 0,100 g) was 4.
